Results from patent US8951995B2, “Use of 24-nor-UDCA” (Medizinische Universitat Graz, priority 2005, dated 2015).
Like-named read-outs stand apart in the source and are kept apart here.

Experiments:
Mdr2−/− mice [1] = test: Routine serum biochemistry in bile acid-fed Mdr2−/− mice; format: in vivo; conditions: Mdr2−/− mice fed 0.5% w/w in diet for 4 weeks, mean ± SD, n = 5
Procedure: (§1) Two months-old Mdr2^−/− (a time point when sclerosing cholangitis is already fully established in these animals (Fickert, Zollner, et al. 2002) were either fed a diet supplemented with norUDCA (0.5%, w/w) or UDCA as a clinical comparator (0.5%, w/w) for 4 weeks and compared to standard-diet-fed Mdr2^−/− and wild type controls.
Serum samples were stored at −70° C. until analysis of alanine transaminase (ALT) and alkaline phosphatase (AP) by routine clinical chemistry performed on a Hitachi 717 analyzer (Boehringer Mannheim, Mannheim, Germany). For determination of total serum bile acid levels, a commercial 3-alpha-hydroxysteroid dehydrogenase assay (Ecoline S+; DiaSys, Holzheim, Germany) was used.

Mdr2−/− mice [2] = test: Liver histology (H&E, Sirius red) in bile acid-fed Mdr2−/− mice; format: in vivo
Source text: as §1
For conventional light microscopy, livers were fixed in 4% neutral buffered formaldehyde solution and embedded in paraffin. Sections (4 μm thick) were stained with H&E and Sirius red stain, respectively. The sections were coded and examined by a pathologist (H. D.) unaware of the animals' treatment.

Mdr2−/− mice [3] = test: Bile flow and biliary excretion measurement; format: in vivo; conditions: Mdr2−/− mice fed 0.5% w/w for 4 weeks, mean ± SD; for Bile flow: normalized to liver weight
Procedure: as §1
Bile flow was determined gravimetrically and normalized to liver weight as described previously (Fickert, Zollner, et al. 2001). Biliary phospholipids concentration was determined using a commercially available kit (Phospholipid B; Wako, Neuss, Germany) according to the manufacture's instructions. Biliary cholesterol concentration was determined using a commercial available kit (Cholesterol liquicolor; Human, Wiesbaden, Germany) according to the manufacture's instructions. Biliary gluthathione (GSH) concentration was determined after protein precipitation in 5% metaphosphoric acid using the Glutathione Assay Kit (Calbiochem, San Diego, US) according to the manufacturer's instructions. Biliary bile acid concentration was analyzed using a 3-alpha-hydroxysteroid dehydrogenase assay (Ecoline St, DiaSys) according to the manufacturer's instructions.

Cyp2b10 = test: Real-time PCR, relative expression of Cyp2b10; format: in vivo; conditions: liver mRNA, Mdr2−/− mice fed 0.5% w/w for 4 weeks; KO = 100; mean ± SD, n = 5
Procedure: as §1
(§2) RNA isolation, cDNA synthesis and Taqman® real time PCR were performed as described previously (Wagner, Fickert, et al. 2003). The following primers and 5′ FAM, 3′ TAMRA labeled probes were used: Col1a1 fwd: […] (Seq ID No. 35), Col1a1 rev: […] (Seq ID No. 36) and Col1a1 probe: […] (Seq ID No. 37); TIMP-1 fwd: […] (Seq ID No. 38), TIMP-1 rev: […] (Seq ID No. 39) and TIMP-1 probe: […] (Seq ID No. 40); MMP-2 fwd: […] (Seq ID No. 41), MMP-2 rev: […] (Seq ID No. 42) and MMP-2 probe: […] (Seq ID No. 43).

Cyp3a11 = test: Real-time PCR, relative expression of Cyp3a11; format: in vivo; conditions: liver mRNA, Mdr2−/− mice fed 0.5% w/w for 4 weeks; KO = 100; mean ± SD, n = 5
Procedure: as §1, §2

Sult2a1 = test: Real-time PCR, relative expression of Sult2a1; format: in vivo; conditions: liver mRNA, Mdr2−/− mice fed 0.5% w/w for 4 weeks; KO not detectable, KO + UDCA = 100; mean ± SD, n = 5
Procedure: as §1, §2

Ugt1a1 = test: Real-time PCR, relative expression of Ugt1a1; format: in vivo; conditions: liver mRNA, Mdr2−/− mice fed 0.5% w/w for 4 weeks; KO = 100; mean ± SD, n = 5
Procedure: as §1, §2

Cyp7a1 = test: Real-time PCR, relative expression of Cyp7a1; format: in vivo; conditions: liver mRNA, Mdr2−/− mice fed 0.5% w/w for 4 weeks; KO = 100; mean ± SD, n = 5
Procedure: as §1, §2

Mrp3 = test: Real-time PCR, relative expression of Mrp3; format: in vivo; conditions: liver mRNA, Mdr2−/− mice fed 0.5% w/w for 4 weeks; KO = 100; mean ± SD, n = 5
Procedure: as §1, §2

Mrp4 = test: Real-time PCR, relative expression of Mrp4; format: in vivo; conditions: liver mRNA, Mdr2−/− mice fed 0.5% w/w for 4 weeks; KO = 100; mean ± SD, n = 5
Procedure: as §1, §2

Mdr2−/− mice [4] = test: Hepatic hydroxyproline content; format: in vivo; conditions: Mdr2−/− mice fed 0.5% w/w for 4 weeks, vs control diet-fed KO; FIG. 2
Procedure: as §1
To quantify liver fibrosis in our model hepatic hydroxyproline content was determined. The right liver lobe was homogenized in 6-normal HCl (200 mg liver tissue/4 ml HCl) and hydrolyzed at 110° C. for 16 h. After filtration 50 μl were added to 450 μl 2.2% NaOH dissolved in citrate-acetate buffer (50 g citric acid×H2O, 12 ml acidic acid, 120 g sodium acetate×3H2O, 34 g NaOH ad 1 liter distilled water; pH 6.0). After adding 250 μl perchloric acid and 12 min incubation at room temperature 250 μl p-dimethylaminobenzaldehyde solution was added and incubated at 60° C. for 20 min. Hydroxyproline content was measured at 565 nm using a hydroxyproline standard curve.

[5] = system: portal neutrophils (CD11b-positive cells); test: Immunohistochemistry for neutrophils marker CD-11b; format: in vivo; conditions: Mdr2−/− mice fed 0.5% w/w for 4 weeks, vs standard diet-fed KO; FIG. 3
Source text: as §1
To quantify neutrophils CD 11b-positive cells were detected as described previously (Fickert, Fuchsbichler, et al. 2004) with the modification that binding of the antibody was detected using the ABC system (Dako) using AEC (Dako) as substrate. Number of neutrophils was calculated by counting positive cells in 20 portal fields in sections of 3 animals in each group.

VCAM = test: Immunohistochemistry for vascular cell adhesion molecule (VCAM); format: in vivo; conditions: interlobular and lobular bile ducts, Mdr2−/− mice fed 0.5% w/w for 4 weeks; FIG. 4
Procedure: as §1
Immunohistochemistry for VCAM was performed on acetone fixed cryosections using the monoclonal rat anti CD106 (VCAM-1, dilution 1:30, PharMingen, San Diego, Calif., USA) and binding of the antibody was detected using the ABC system (Dako) using AEC (Dako) as substrate.

[6] = system: hepatocytes and cholangiocytes; test: Immunohistochemistry for proliferation marker Ki-67; format: in vivo; conditions: Mdr2−/− mice fed 0.5% w/w for 4 weeks; FIG. 5
Procedure: as §1
Immunohistochemistry for Ki-67 was performed on microwave-treated ([…] citrate buffer pH 6.0) paraffin sections (4 μm thick) using a polyclonal rabbit anti-Ki-67 antibody (dilution 1:750, Novocastra, Newcastle upon Tyne, UK). Binding of the antibody was detected using the ABC system (Dako) using AEC (Dako) as substrate. Number of proliferating hepatocytes was calculated by counting positive nuclei in 30 high power fields in sections of 3 animals in each group. Number of proliferating bile duct epithelial cells was calculated by counting positive nuclei in 20 portal fields in sections of 3 animals in each group.

collagen 1 and 3 mRNA = test: Hepatic collagen 1 and 3 mRNA expression; format: in vivo; conditions: Mdr2−/− mice fed 0.5% w/w for 4 weeks
Procedure: as §1, §2

Ntcp, Oatp1, Bsep, Mrp2 = test: mRNA expression of hepatocellular uptake and canalicular efflux systems; format: in vivo; conditions: Mdr2−/− mice fed 0.5% w/w for 4 weeks; data not shown
Procedure: as §1, §2

[7] = norUDCA metabolism and excretion in mice; format: in vivo
[8] = Estimated choleretic potency in mice; format: in vivo; conditions: relative to normal bile flow
[9] = cited from earlier work
[10] = humans, relative to normal bile flow; cited from earlier work
[11] = rats; cited from earlier work
[12] = Mdr2−/− mice fed 0.5% w/w for 4 weeks

C[C@H](CCC(=O)O)[C@H]1CC[C@H]2[C@@H]3[C@@H](O)C[C@@H]4C[C@H](O)CC[C@]4(C)[C@H]3CC[C@]12C [UDCA, Ursodeoxycholic acid]
ALT (Mdr2−/− mice [1]): 576 ± 175 U/L
AP (Mdr2−/− mice [1]): 399 ± 73 U/L
Bili (Mdr2−/− mice [1]): 0.55 ± 0.19
Animals showing bile infarcts (Mdr2−/− mice [2]; [12]): 2 out of 5
Biliary excretion of bicarbonate (Mdr2−/− mice [3]): 67.1 ± 10.0 nmol/g/min
Biliary excretion of bile acids (Mdr2−/− mice [3]): 37.2 ± 7.6 nmol/g/min
Biliary excretion of cholesterol (Mdr2−/− mice [3]): 0.3 ± 0.1 nmol/g/min
Biliary excretion of glutathione (Mdr2−/− mice [3]): 5.6 ± 1.1 nmol/g/min
Biliary excretion of phospholipids (Mdr2−/− mice [3]): 0.3 ± 0.03 nmol/g/min
Bile flow (Mdr2−/− mice [3]): 2.4 ± 0.3 µL/g/min
Relative expression level of Cyp2b10 (Cyp2b10): 751 ± 245
Relative expression level of Cyp3a11 (Cyp3a11): 246 ± 72
Relative expression level of Sult2a1 (Sult2a1): 100 ± 46
Relative expression level of Ugt1a1 (Ugt1a1): 137 ± 55
Relative expression level of Cyp7a1 (Cyp7a1): 9 ± 4
Relative expression level of Mrp3 (Mrp3): 194 ± 55
Relative expression level of Mrp4 (Mrp4): 357 ± 95

C[C@H](CC(=O)O)[C@H]1CC[C@H]2[C@@H]3[C@@H](O)C[C@@H]4C[C@H](O)CC[C@]4(C)[C@H]3CC[C@]12C [norUDCA, 3-alpha,7-alpha-dihydroxy-24-nor-5-beta-cholan-23-oic acid]
ALT (Mdr2−/− mice [1]): 165 ± 23 U/L
AP (Mdr2−/− mice [1]): 162 ± 25 U/L
Bili (Mdr2−/− mice [1]): 0.23 ± 0.2
Ductular proliferation (Mdr2−/− mice [2]; [12]): virtually absent
Large bile duct disease (H&E staining) (Mdr2−/− mice [2]; Mdr2−/− mice fed 0.5% w/w for 4 weeks, vs control diet-fed KO, FIG. 1A): absent
Fibrosis with periductal collagen fibers (Sirius red staining) (Mdr2−/− mice [2]; Mdr2−/− mice fed 0.5% w/w for 4 weeks, vs control diet-fed KO, FIG. 1C): even more pronounced reduction
Sclerosing cholangitis (Mdr2−/− mice [2]; Mdr2−/− mice, model for PSC, within 4 weeks): cures sclerosing cholangitis
Hepatic hydroxyproline content (Mdr2−/− mice [4]): reduced to baseline levels
Number of portal neutrophils (CD11b-positive cells per 20 portal fields) / portal inflammation [5]: significantly reduced number of portal neutrophils
VCAM expression in bile duct epithelial cells (VCAM): significantly lower VCAM expression
Proliferation of bile duct epithelial cells / cholangiocytes (Ki-67 positive) [6]: significantly reduced the degree of hepatocyte and bile duct epithelial cell proliferation to nearly wild type control levels
Proliferation of hepatocytes (Ki-67 positive) [6]: significantly reduced the degree of hepatocyte and bile duct epithelial cell proliferation to nearly wild type control levels
Biliary excretion of bicarbonate (Mdr2−/− mice [3]): 98.8 ± 14.6 nmol/g/min
Biliary excretion of bile acids (Mdr2−/− mice [3]): 29.5 ± 2.3 nmol/g/min
Biliary excretion of cholesterol (Mdr2−/− mice [3]): 0.2 ± 0.04 nmol/g/min
Biliary excretion of glutathione (Mdr2−/− mice [3]): 5.8 ± 1.2 nmol/g/min
Biliary excretion of phospholipids (Mdr2−/− mice [3]): 0.3 ± 0.1 nmol/g/min
Bile flow (Mdr2−/− mice [3]): 3.5 ± 0.3 µL/g/min
Relative expression level of Cyp2b10 (Cyp2b10): 1294 ± 418
Relative expression level of Cyp3a11 (Cyp3a11): 241 ± 45
Relative expression level of Sult2a1 (Sult2a1): 24157 ± 14948
Relative expression level of Ugt1a1 (Ugt1a1): 304 ± 81
Relative expression level of Cyp7a1 (Cyp7a1): 60 ± 30
Relative expression level of Mrp3 (Mrp3): 207 ± 73
Relative expression level of Mrp4 (Mrp4): 590 ± 193
Hepatic collagen 1 and 3 mRNA expression (collagen 1 and 3 mRNA): significant reduction
mRNA expression of hepatocellular uptake (Ntcp, Oatp1) and canalicular efflux (Bsep, Mrp2) systems (Ntcp, Oatp1, Bsep, Mrp2): no significant effects
Major metabolite of norUDCA ([7]; mice): glucuronide
Renal excretion of norUDCA ([7]; mice): considerable renal excretion
Bile acid sulfates and glucuronides in urine ([7]; norUDCA fed Mdr2−/− mice): appearance of bile acid sulfates and glucuronides in urine
Estimated choleretic potency [8]: about three times above that of normal bile flow
Renal excretion of norUDCA ([9]; humans (men)): considerable renal excretion
Major metabolite of norUDCA ([9]; humans): glucuronide
Estimated choleretic potency [10]: about three times above that of normal bile flow
Induced bile flow [11]: 0.16 mL/min/kg
